Measurements from patent publication US20230263742A1, “A LIPID” (Stemirna Therapeutics Co., Ltd., priority 2021, published 2023).

How the values were obtained:
Balb/C mice = assay: In vivo Luc expression after intramuscular injection, compared with MC3 (Example 4); details: 5 μg Luc mRNA-LNP (DSPC) intramuscularly, Balb/C mice n=3, 6 hours; for in vivo Luc expressions (FIG. 2): compared with MC3
Method: The mRNA nanoparticle compositions of SW-II-118, SW-120, and SW-121 were prepared according to the method provided in Example 3. The ratios of the lipids were 50:10:38.5:1.5 mol % for cationic lipid: DSPC: cholesterol: PEG-DMG. The cationic lipid MC3 was a current standard in the art. Accordingly, the standard MC3 formulation including 50 mol % MC3, 10 mol % DSPC, 38.5 mol % cholesterol, and 1.5 mol % PEG-DMG was used as a reference for this study.
5 μg of Luc mRNA-LNP of MC3, SW-II-118, SW-II-120, or SW-II-121 was intramuscularly injected into Balb/C mice (n=3). 6 hours after the administration, the mice were injected intraperitoneally with 0.15 mg/kg […] substrate. 15 minutes after the injection of the substrate, the fluorescence signal intensity was tested under a small animal in vivo imaging instrument.

[1] = Encapsulation efficiency (RIBOGREEN kit); assay type: physicochemical; details: Luc mRNA-LNP 50:10:38.5:1.5
Method: For nanoparticle compositions including an RNA, a QUANT-IT™ RIBOGREENR®RNA assay (Invitrogen Corporation Carlsbad, Calif.) can be used to evaluate the encapsulation of an RNA by the nanoparticle composition. The samples were diluted to a concentration of approximately 5 μg/mL in a TE buffer solution (10 mM Tris-HCl, 1 mM EDTA, pH 7.5). 50 μL of the diluted samples are transferred to a polystyrene 96 well plate and either 50 μL of TE buffer or 50 μL of a 2% Triton X-100 solution is added to the wells. The plate is incubated at a temperature of 37° C. for 15 minutes. The RIBOGREENR reagent is diluted 1:100 in TE buffer and 100 μL of this solution is added to each well. The fluorescence intensity can be measured using a fluorescence plate reader (Wallac Victor 1420 Multilablel Counter; Perkin Elmer, Waltham, Mass.) at an excitation wavelength of, for example, about 480 nm and an emission wavelength of, for example, about 520 nm. The fluorescence values of the reagent blank are subtracted from that of each of the samples and the percentage of free RNA is determined by dividing the fluorescence intensity of the intact sample (without addition of Triton X-100) by the fluorescence value of the disrupted sample (caused by the addition of Triton X-100).
Encapsulation efficiency detection method: LNP content and encapsulation efficiency detection were carried out according to the RIBOGREEN kit.

CCCCCCCCC(CCCCCCCC)OC(=O)CCCCCCCN(CCO)CCCCCCCC(=O)OCCc1ccc(CCCCCCC)cc1 [SW-II-121]
Luc expression in liver site compared with injection site (FIG. 2) (Balb/C mice): higher than that in injection site
in vivo Luc expressions (FIG. 2) (Balb/C mice): higher than that of MC3
Encapsulation Efficiency (EE, %) ([1]; phospholipid DAPC): 76.6%
Encapsulation Efficiency (EE, %) ([1]; phospholipid DMPE): 70.9%
Encapsulation Efficiency (EE, %) ([1]; phospholipid DOPE): 81.5%
Encapsulation Efficiency (EE, %) ([1]; phospholipid DPPC): 86.7%
Encapsulation Efficiency (EE, %) ([1]; phospholipid DPPE): 84.0%
Encapsulation Efficiency (EE, %) ([1]; phospholipid DSPC): 86.0%
Encapsulation Efficiency (EE, %) ([1]; phospholipid DSPE): 68.5%

CCCCCCCCC(CCCCCCCC)OC(=O)CCCCCCCN(CCO)CCCCCCCC(=O)OCCc1ccc(CCCC)cc1 [SW-II-118]
Luc expression in liver site compared with injection site (FIG. 2) (Balb/C mice): higher than that in injection site
in vivo Luc expressions (FIG. 2) (Balb/C mice): higher than that of MC3
Encapsulation Efficiency (EE, %) ([1]; phospholipid DAPC): 86.4%
Encapsulation Efficiency (EE, %) ([1]; phospholipid DMPE): 86.2%
Encapsulation Efficiency (EE, %) ([1]; phospholipid DOPE): 87.5%
Encapsulation Efficiency (EE, %) ([1]; phospholipid DPPC): 83.4%
Encapsulation Efficiency (EE, %) ([1]; phospholipid DSPC): 76.0%
Encapsulation Efficiency (EE, %) ([1]; phospholipid DSPE): 81.0%

CCCCCCCCC(CCCCCCCC)OC(=O)CCCCCCCN(CCO)CCCCCCCC(=O)OCCc1ccc(CCCCCC)cc1 [SW-II-120]
Luc expression in liver site compared with injection site (FIG. 2) (Balb/C mice): higher than that in injection site
in vivo Luc expressions (FIG. 2) (Balb/C mice): higher than that of MC3
Encapsulation Efficiency (EE, %) ([1]; phospholipid DAPC): 84.3%
Encapsulation Efficiency (EE, %) ([1]; phospholipid DMPE): 86.2%
Encapsulation Efficiency (EE, %) ([1]; phospholipid DOPE): 90.9%
Encapsulation Efficiency (EE, %) ([1]; phospholipid DPPC): 84.9%
Encapsulation Efficiency (EE, %) ([1]; phospholipid DPPE): 64.7%
Encapsulation Efficiency (EE, %) ([1]; phospholipid DSPC): 85.3%
